The term Emax denotes the maximal effect, on the per cent scale that the assay sets.

For assay [1], the target named is human muscarinic M3 receptor (Homo sapiens, UniProt P20309). Briefly: Alphascreen Surefire phospho-ERK1/2 functional assay, M3. The note with it: for Emax: CHO, read-out: % Emax cf. ACh, M3, CHO cells stably expressing human M3, relative to ACh; for EC50: pEC50 M3, CHO cells stably expressing human M3, phospho-ERK1/2, * = variable results. On the technique in general: Alpha assays give light when donor and acceptor beads are brought close together.

Assay [2] concerns the target T1, human muscarinic M4 receptor (Homo sapiens, UniProt P08173).
T1 construct: expressed in transfected cells
T1 sequence (P08173 1-479): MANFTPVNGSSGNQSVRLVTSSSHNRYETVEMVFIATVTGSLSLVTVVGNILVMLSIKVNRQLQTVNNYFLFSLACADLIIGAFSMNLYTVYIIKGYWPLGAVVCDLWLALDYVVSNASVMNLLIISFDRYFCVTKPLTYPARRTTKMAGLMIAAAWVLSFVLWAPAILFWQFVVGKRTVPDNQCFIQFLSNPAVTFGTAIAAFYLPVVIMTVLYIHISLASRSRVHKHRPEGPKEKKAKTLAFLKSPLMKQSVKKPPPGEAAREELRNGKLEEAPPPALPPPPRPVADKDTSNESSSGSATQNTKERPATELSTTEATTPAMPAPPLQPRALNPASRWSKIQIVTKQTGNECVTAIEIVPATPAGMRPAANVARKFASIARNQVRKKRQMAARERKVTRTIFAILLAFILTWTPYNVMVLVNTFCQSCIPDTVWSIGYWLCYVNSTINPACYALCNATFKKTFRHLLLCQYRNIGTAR
Put plainly: Alphascreen Surefire phospho-ERK1/2 functional assay, M4. The class given is cell-based. The note with it: for EC50: CHO cells stably expressing human M4, phospho-ERK1/2, * = variable results, read-out: pEC50 M4 (converted); for Emax: CHO, read-out: % Emax cf. ACh, M4, CHO cells stably expressing human M4, relative to ACh.
Experimental: (§1) CHO cells stably expressing the human muscarinic M1, M2, M3 or M4 receptor were plated (25K/well) onto 96-well tissue culture plates in MEM-alpha+10% dialysed FBS. Once adhered, cells were serum-starved overnight. Agonist stimulation was performed by the addition of 5 μL agonist to the cells for 5 min (37° C.). Media was removed and 50 μL of lysis buffer added. After 15 min, a 4 μL sample was transferred to 384-well plate and 7 μL of detection mixture added. Plates were incubated for 2 h with gentle agitation in the dark and then read on a PHERAstar plate reader.
(§2) pEC50 and Emax figures were calculated from the resulting data for each receptor subtype.

The target of assay [3] is T2, human muscarinic M1 receptor (Homo sapiens, UniProt P11229).
T2 sequence (P11229 1-460): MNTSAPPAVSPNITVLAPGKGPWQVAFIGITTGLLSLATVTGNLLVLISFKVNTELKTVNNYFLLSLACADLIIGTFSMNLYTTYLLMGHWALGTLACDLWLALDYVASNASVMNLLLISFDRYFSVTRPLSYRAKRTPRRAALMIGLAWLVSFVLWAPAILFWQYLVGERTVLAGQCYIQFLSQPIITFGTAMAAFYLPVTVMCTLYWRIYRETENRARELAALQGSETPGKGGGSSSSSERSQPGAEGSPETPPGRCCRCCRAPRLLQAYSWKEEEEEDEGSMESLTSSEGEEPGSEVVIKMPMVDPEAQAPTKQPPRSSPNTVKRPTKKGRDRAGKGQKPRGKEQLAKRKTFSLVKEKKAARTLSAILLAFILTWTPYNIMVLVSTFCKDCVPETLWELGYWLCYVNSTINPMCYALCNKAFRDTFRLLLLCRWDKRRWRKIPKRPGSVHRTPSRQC
Put plainly: Alphascreen Surefire phospho-ERK1/2 functional assay, M1. The class given is cell-based. The note with it: for EC50: CHO cells stably expressing human M1, phospho-ERK1/2, * = variable results, read-out: pEC50 M1 (converted); for Emax: CHO, read-out: % Emax cf. ACh, M1, CHO cells stably expressing human M1, relative to ACh.

The target in assay [4] is T3, human muscarinic M2 receptor (Homo sapiens, UniProt P08172).
T3 sequence (P08172 1-466): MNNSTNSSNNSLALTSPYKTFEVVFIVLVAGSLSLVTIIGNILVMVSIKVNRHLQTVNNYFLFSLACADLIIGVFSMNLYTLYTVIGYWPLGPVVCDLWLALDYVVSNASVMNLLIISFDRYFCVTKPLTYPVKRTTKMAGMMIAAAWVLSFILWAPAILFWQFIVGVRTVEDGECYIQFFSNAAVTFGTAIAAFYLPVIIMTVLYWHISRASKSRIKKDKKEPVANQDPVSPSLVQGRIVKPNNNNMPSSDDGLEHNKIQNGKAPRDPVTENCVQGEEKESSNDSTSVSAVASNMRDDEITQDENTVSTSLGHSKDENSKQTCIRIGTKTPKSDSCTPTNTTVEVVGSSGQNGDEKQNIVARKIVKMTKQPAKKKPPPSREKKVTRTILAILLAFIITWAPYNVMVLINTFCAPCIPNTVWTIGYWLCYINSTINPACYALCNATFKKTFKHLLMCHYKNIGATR
Briefly: Alphascreen Surefire phospho-ERK1/2 functional assay, M2. The note with it: for Emax: CHO, read-out: % Emax cf. ACh, M2, CHO cells stably expressing human M2, relative to ACh.
Experimental: as §1, §2

Sequence of human muscarinic M3 receptor (P20309 whole entry): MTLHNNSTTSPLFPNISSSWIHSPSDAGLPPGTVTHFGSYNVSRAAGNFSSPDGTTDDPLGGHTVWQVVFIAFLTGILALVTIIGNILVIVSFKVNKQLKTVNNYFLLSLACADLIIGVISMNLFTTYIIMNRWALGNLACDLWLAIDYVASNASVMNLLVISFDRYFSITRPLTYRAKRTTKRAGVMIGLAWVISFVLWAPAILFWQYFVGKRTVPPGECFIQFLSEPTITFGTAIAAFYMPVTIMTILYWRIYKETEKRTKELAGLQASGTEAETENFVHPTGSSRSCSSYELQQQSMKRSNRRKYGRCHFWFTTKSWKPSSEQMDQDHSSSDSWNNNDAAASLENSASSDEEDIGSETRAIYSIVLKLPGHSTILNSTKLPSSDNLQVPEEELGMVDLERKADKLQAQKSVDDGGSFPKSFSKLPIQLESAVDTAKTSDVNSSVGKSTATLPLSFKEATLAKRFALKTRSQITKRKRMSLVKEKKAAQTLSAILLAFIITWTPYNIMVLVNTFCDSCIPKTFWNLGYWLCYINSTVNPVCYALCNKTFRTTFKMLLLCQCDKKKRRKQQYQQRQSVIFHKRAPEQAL

As to `CCOC(=O)N1CCC2(CC(N3CCC(c4nc(Cl)c[nH]4)CC3)C2)C1` (single isomer, unassigned) [1-2 Isomer 2, ethyl 2-[4-(4-chloro-1H-imidazol-2-yl)piperidin-1-yl]-6-azaspiro[3.4]octane-6-carboxylate], the maximum response (Emax) in assay [1] was 4%; in assay [2], 100%; in assay [3] it was 93%; in assay [4], 6%. For the same compound, the EC50 in assay [1] is greater than 20 µM; in assay [2] it was 0.0251 µM; in assay [3] it was 0.251 µM; in assay [4], greater than 20 µM.
Take `CCOC(=O)N1CCC2(CC(N3CCC(c4nc(Cl)c(Cl)[nH]4)CC3)C2)C1` (single isomer, unassigned) [1-5 Isomer 2, ethyl 2-[4-(4,5-dichloro-1H-imidazol-2-yl)piperidin-1-yl]-6-azaspiro[3.4]octane-6-carboxylate]: the maximum response (Emax) in assay [1] was 2%; in assay [2], 81%; in assay [3], 94%; in assay [4] it was 19%. Besides, the EC50 was greater than 20 µM in assay [1], 0.02 µM in assay [2], 0.126 µM in assay [3] and greater than 20 µM in assay [4].
As for `COC(=O)N1CCC2(CC(N3CCC(c4nccn4C)CC3)C2)C1` (single isomer, unassigned) [1-6 Isomer 2, methyl 2-[4-(1-methyl-1H-imidazol-2-yl)piperidin-1-yl]-6-azaspiro[3.4]octane-6-carboxylate], the Emax in assay [1] was found to be 38%; in assay [2] it was 71%; in assay [3], 128%; in assay [4], 57%. Besides, the EC50 in assay [1] is 0.0631 µM; in assay [2] it was 0.0631 µM; in assay [3], 1.26 µM; in assay [4], greater than 20 µM.
Regarding `CCOC(=O)N1CCC2(CC(N3CCC(c4nccn4C)CC3)C2)C1` (single isomer, unassigned) [1-7 Isomer 2, ethyl 2-[4-(1-methyl-1H-imidazol-2-yl)piperidin-1-yl]-6-azaspiro[3.4]octane-6-carboxylate], the maximal effect (Emax) in assay [1] is 22%; in assay [2] it was 97%; in assay [3], 97%; in assay [4], 15%. The EC50 in assay [1] was greater than 20 µM; in assay [2], 0.0251 µM; in assay [3] it was 0.158 µM; in assay [4], greater than 20 µM.
On to `CCOC(=O)N1CCC2(CC(N3CCC(c4nccn4C(=O)OCC)CC3)C2)C1` (single isomer, unassigned) [1-8 Isomer 2, ethyl 2-{4-[1-(ethoxycarbonyl)-1H-imidazol-2-yl]piperidin-1-yl}-6-azaspiro[3.4]octane-6-carboxylate], for which the Emax in assay [1] is 0%; in assay [2], 98%; in assay [3], 76%; in assay [4] it was 34%. The EC50 in assay [1] is greater than 20 µM; in assay [2], 0.0158 µM; in assay [3], 0.316 µM; in assay [4], greater than 20 µM.
Take `CCOC(=O)N1CCC2(CC(N3CCC(c4nc(C)cn4C)CC3)C2)C1` (single isomer, unassigned) [1-12 Isomer 2, ethyl 2-[4-(1,4-dimethyl-1H-imidazol-2-yl)piperidin-1-yl]-6-azaspiro[3.4]octane-6-carboxylate]: the Emax in assay [1] was determined as 15%; in assay [2], 128%; in assay [3], 85%; in assay [4], 11%. Besides, the EC50 is greater than 20 µM in assay [1], 0.126 µM in assay [2], 1 µM in assay [3] and greater than 20 µM in assay [4].
`CCOC(=O)N1CCC2(CC(N3CCC(c4ncc(Cl)n4C)CC3)C2)C1` (single isomer, unassigned) [1-14 Isomer 2, ethyl 2-[4-(5-chloro-1-methyl-1H-imidazol-2-yl)piperidin-1-yl]-6-azaspiro[3.4]octane-6-carboxylate]: the Emax in assay [1] was found to be 5%; in assay [2], 99%; in assay [3], 66%; in assay [4], 27%. The EC50 was greater than 20 µM in assay [1], 0.0501 µM in assay [2], 0.631 µM in assay [3] and greater than 20 µM in assay [4].
`COC(=O)N1CCC2(CC(N3CCC(c4nc(Cl)c(Cl)n4C)CC3)C2)C1` (single isomer, unassigned) [1-16 Isomer 2, methyl 2-[4-(4,5-dichloro-1-methyl-1H-imidazol-2-yl)piperidin-1-yl]-6-azaspiro[3.4]octane-6-carboxylate]: the Emax came to 1% in assay [1], 82% in assay [2], 80% in assay [3] and 34% in assay [4]. For the same compound, the EC50 in assay [1] was greater than 20 µM; in assay [2], 0.158 µM; in assay [3] it was 1.58 µM; in assay [4] it was 7.94 µM.
For `CCOC(=O)N1CCC2(CC(N3CCC(c4nc(Cl)c(Cl)n4C)CC3)C2)C1` (single isomer, unassigned) [1-17 Isomer 2, ethyl 2-[4-(4,5-dichloro-1-methyl-1H-imidazol-2-yl)piperidin-1-yl]-6-azaspiro[3.4]octane-6-carboxylate], the Emax in assay [1] was found to be 0%; in assay [2], 90%; in assay [3] it was 53%; in assay [4] it was 14%. For the same compound, the EC50 in assay [1] was greater than 20 µM; in assay [2], 0.0631 µM; in assay [3], 0.631 µM; in assay [4], greater than 20 µM.
For `CCOC(=O)N1CCC2(CC(N3CCC(c4ccn[nH]4)CC3)C2)C1` (single isomer, unassigned) [1-18 Isomer 2, ethyl 2-[4-(1H-pyrazol-5-yl)piperidin-1-yl]-6-azaspiro[3.4]octane-6-carboxylate], the maximum response (Emax) in assay [1] worked out at 56%; in assay [2], 89%; in assay [3] it was 65%; in assay [4], 3%. In addition, the EC50 in assay [1] is greater than 20 µM; in assay [2], 0.0501 µM; in assay [3], 0.126 µM; in assay [4], greater than 20 µM.
On to `CCOC(=O)N1CCC2(CC(N3CCC(c4ccnn4C)CC3)C2)C1` (single isomer, unassigned) [1-21 Isomer 2, ethyl 2-[4-(1-methyl-1H-pyrazol-5-yl)piperidin-1-yl]-6-azaspiro[3.4]octane-6-carboxylate], for which the EC50 was greater than 20 µM in assay [1], 0.0398 µM in assay [2], greater than 20 µM in assay [3] and greater than 20 µM in assay [4]. Also, the maximum response (Emax) in assay [3] came out at 11%.
With `CCOC(=O)N1CCC2(CC(N3CCC(c4ncco4)CC3)C2)C1` (single isomer, unassigned) [1-23 Isomer 2, ethyl 2-[4-(1,3-oxazol-2-yl)piperidin-1-yl]-6-azaspiro[3.4]octane-6-carboxylate], the maximum response (Emax) came out at 9% in assay [1], 105% in assay [2], 55% in assay [3] and 7% in assay [4]. Also, the EC50 in assay [1] is greater than 20 µM; in assay [2], 0.0316 µM; in assay [3], 0.398 µM; in assay [4] it was greater than 20 µM.
